In US20260334439A1, “BCAT2 INHIBITORS” (Agios Pharmaceuticals, Inc., priority 2023, published 2026):

Legend:
BCAT2 [1] = biological target: T1, BCAT2 (Homo sapiens, UniProt O15382); assay: BCAT2 in vitro enzyme inhibition assay (hBCAT2, glutamate dehydrogenase/diaphorase/resazurin coupled fluorescence read); type: biochemical; details: hBCAT2, 1 h preincubation at 25° C., one hour reaction; average where tested multiple times
T1 sequence (O15382 28-392): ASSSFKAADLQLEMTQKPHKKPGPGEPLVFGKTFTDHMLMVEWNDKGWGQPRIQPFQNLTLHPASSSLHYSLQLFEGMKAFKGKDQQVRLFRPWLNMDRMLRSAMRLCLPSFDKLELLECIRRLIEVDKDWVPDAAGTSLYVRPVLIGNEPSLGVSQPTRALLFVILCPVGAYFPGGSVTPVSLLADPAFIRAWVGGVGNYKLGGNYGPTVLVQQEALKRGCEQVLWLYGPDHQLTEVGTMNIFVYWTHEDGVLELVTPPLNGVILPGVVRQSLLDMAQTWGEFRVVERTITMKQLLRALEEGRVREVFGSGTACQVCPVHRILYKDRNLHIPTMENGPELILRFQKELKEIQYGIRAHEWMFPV
Outline: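 hBCAT2 (0.33 μg/mL in mix) preincubated 1 h at 25 °C with compound (top 100 μM, 3-fold, 10 points) in Tris pH 8.0/NaCl/BSA; substrate mix added (L-leucine, α-ketoglutarate, GDH, NAD, diaphorase, resazurin), quenched with SDS after 1 h, fluorescence Ex 540/Em 590; duplicates, repeat tests averaged.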

BCAT2 [2] = biological target: T1, BCAT2; assay: BCAT2 cell inhibition using engineered A549 cells (MUT KO, BCAT1 KO; 13C6-KMV formation by LC-MS/MS); type: cell-based; design: expressed endogenous BCAT2; endogenous in cells; host or cells: A549 cells, MUT knockout and BCAT1 knockout
Outline: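 Medium 13C6-KMV formation is read by LC-MS/MS after PFBHA derivatization with d8-KMV internal standard. Cells are CRISPR MUT/BCAT1 double-knockout A549 expressing endogenous BCAT2, given compound 15 min before labelled isoleucine (800 uM, added 1:1) for 24 h. CTG viability run in parallel; replicates averaged.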

Structure (SMILES)	IC50 (BCAT2 [1])	IC50 (BCAT2 [2])	IC50 (BCAT2 [2]; read-out: BCAT2 Cell Inhibition (IC50), engineered A549 cells, 24 hours, 13C6-KMV in media, average where tested multiple times)
COc1ccc(Cl)cc1C(=O)N[C@@H]1C[C@H](n2c(-c3ccccc3F)nc3cnc(-c4nc[nH]n4)cc32)CN(C)C1 [Example 136, 5-chloro-N-((3R,5S)-5-(2-(2-fluorophenyl)-6-(1H-1,2,4-triazol-3-yl)-1H-imidazo[4,5-c]pyridin-1-yl)-1-methylpiperidin-3-yl)-2-methoxybenzamide]	< 100 nM	100 to 500 nM	–
CN1C[C@H](NC(=O)c2cc(Cl)ccc2OCCO)C[C@H](n2c(-c3ccccc3F)nc3cnc(-c4nc[nH]n4)cc32)C1 [Example 150, 5-chloro-N-((3R,5S)-5-(2-(2-fluorophenyl)-6-(1H-1,2,4-triazol-3-yl)-1H-imidazo[4,5-c]pyridin-1-yl)-1-methylpiperidin-3-yl)-2-(2-hydroxyethoxy)benzamide]	< 100 nM	100 to 500 nM	–
CN1C[C@H](NC(=O)c2cc(F)ccc2F)C[C@H](n2c(-c3ccccc3F)nc3cnc(-c4nc[nH]n4)cc32)C1 [Example 153, 2,5-difluoro-N-((3R,5S)-5-(2-(2-fluorophenyl)-6-(1H-1,2,4-triazol-3-yl)-1H-imidazo[4,5-c]pyridin-1-yl)-1-methylpiperidin-3-yl)benzamide]	< 100 nM	100 to 500 nM	–
O=C1c2cc(Cl)ccc2CN1[C@H]1CCC[C@@H](n2c(-c3ccccc3F)nc3cnc(-c4nc[nH]n4)cc32)C1 [Example 168, 6-chloro-2-((1S,3R)-3-(2-(2-fluorophenyl)-6-(1H-1,2,4-triazol-3-yl)-1H-imidazo[4,5-c]pyridin-1-yl)cyclohexyl)isoindolin-1-one]	< 100 nM	< 100 nM	–
O=C1c2cc(F)ccc2CN1[C@H]1CCC[C@@H](n2c(-c3ncccc3F)nc3cnc(-c4nc[nH]n4)cc32)C1 [Example 170, 6-fluoro-2-((1S,3R)-3-(2-(3-fluoropyridin-2-yl)-6-(1H-1,2,4-triazol-3-yl)-1H-imidazo[4,5-c]pyridin-1-yl)cyclohexyl)isoindolin-1-one]	< 100 nM	< 100 nM	–
N#Cc1ccccc1-c1nc2cnc(-c3nc[nH]n3)cc2n1[C@@H]1CCC[C@H](N2Cc3ccc(F)cc3C2=O)C1 [Example 171, 2-(1-((1R,3S)-3-(6-fluoro-1-oxoisoindolin-2-yl)cyclohexyl)-6-(1H-1,2,4-triazol-3-yl)-1H-imidazo[4,5-c]pyridin-2-yl)benzonitrile]	< 100 nM	< 100 nM	–
O=C1c2ccccc2CN1[C@H]1CCC[C@@H](n2c(-c3ccccc3F)nc3cnc(-c4nc[nH]n4)cc32)C1 [Example 174, 2-((1S,3R)-3-(2-(2-fluorophenyl)-6-(1H-1,2,4-triazol-3-yl)-1H-imidazo[4,5-c]pyridin-1-yl)cyclohexyl)isoindolin-1-one]	< 100 nM	< 100 nM	–
O=C1c2c(F)cccc2CN1[C@H]1CCC[C@@H](n2c(-c3ccccc3F)nc3cnc(-c4nc[nH]n4)cc32)C1 [Example 175, 7-fluoro-2-((1S,3R)-3-(2-(2-fluorophenyl)-6-(1H-1,2,4-triazol-3-yl)-1H-imidazo[4,5-c]pyridin-1-yl)cyclohexyl)isoindolin-1-one]	< 100 nM	< 100 nM	–
O=C1c2cccc(F)c2CN1[C@H]1CCC[C@@H](n2c(-c3ccccc3F)nc3cnc(-c4nc[nH]n4)cc32)C1 [Example 177, 4-fluoro-2-((1S,3R)-3-(2-(2-fluorophenyl)-6-(1H-1,2,4-triazol-3-yl)-1H-imidazo[4,5-c]pyridin-1-yl)cyclohexyl)isoindolin-1-one]	< 100 nM	100 to 500 nM	–

The next lines start with the values.

IC50 (BCAT2 [1])	IC50 (BCAT2 [2])	IC50 (BCAT2 [2]; read-out: BCAT2 Cell Inhibition (IC50), engineered A549 cells, 24 hours, 13C6-KMV in media, average where tested multiple times)	Structure (SMILES)
< 100 nM	100 to 500 nM	–	CN1C[C@H](NC(=O)c2cc(F)ccn2)C[C@H](n2c(-c3ccccc3F)nc3cnc(-c4nc[nH]n4)cc32)C1 [Example 134, 4-fluoro-N-((3R,5S)-5-(2-(2-fluorophenyl)-6-(1H-1,2,4-triazol-3-yl)-1H-imidazo[4,5-c]pyridin-1-yl)-1-methylpiperidin-3-yl)picolinamide]
100 to 500 nM	–	> 1000 nM	COc1ccc(Cl)cc1C(=O)N[C@@H]1C[C@H](n2c(-c3ncccc3F)nc3cnc(-c4nc[nH]n4)cc32)CN(C)C1 [Example 137, 5-chloro-N-((3R,5S)-5-(2-(3-fluoropyridin-2-yl)-6-(1H-1,2,4-triazol-3-yl)-1H-imidazo[4,5-c]pyridin-1-yl)-1-methylpiperidin-3-yl)-2-methoxybenzamide]
< 100 nM	100 to 500 nM	–	CN1C[C@H](NC(=O)c2cc(Cl)ccc2F)C[C@H](n2c(-c3ccccc3F)nc3cnc(-c4nc[nH]n4)cc32)C1 [Example 145, 5-chloro-2-fluoro-N-((3R,5S)-5-(2-(2-fluorophenyl)-6-(1H-1,2,4-triazol-3-yl)-1H-imidazo[4,5-c]pyridin-1-yl)-1-methylpiperidin-3-yl)benzamide]
< 100 nM	< 100 nM	–	CC(=O)N1C[C@H](NC(=O)c2cc(F)ccn2)C[C@H](n2c(-c3ccccc3F)nc3cnc(-c4nc(C)co4)cc32)C1 [Example 167, N-((3R,5S)-1-acetyl-5-(2-(2-fluorophenyl)-6-(4-methyloxazol-2-yl)-1H-imidazo[4,5-c]pyridin-1-yl)piperidin-3-yl)-4-fluoropicolinamide]
< 100 nM	< 100 nM	–	O=C1c2cc(F)ccc2CN1[C@H]1CCC[C@@H](n2c(-c3ccccc3F)nc3cnc(-c4nc[nH]n4)cc32)C1 [Example 169, 6-fluoro-2-((1S,3R)-3-(2-(2-fluorophenyl)-6-(1H-1,2,4-triazol-3-yl)-1H-imidazo[4,5-c]pyridin-1-yl)cyclohexyl)isoindolin-1-one]
< 100 nM	< 100 nM	–	O=C1c2cc(Cl)ccc2CN1[C@H]1CCC[C@@H](n2c(-c3ccccc3OCCO)nc3cnc(-c4nc[nH]n4)cc32)C1 [Example 172, 6-chloro-2-((1S,3R)-3-(2-(2-(2-hydroxyethoxy)phenyl)-6-(1H-1,2,4-triazol-3-yl)-1H-imidazo[4,5-c]pyridin-1-yl)cyclohexyl)isoindolin-1-one]
< 100 nM	< 100 nM	–	O=C1c2cc(F)ccc2CN1[C@H]1CCC[C@@H](n2c(-c3ccccc3OCCO)nc3cnc(-c4nc[nH]n4)cc32)C1 [Example 173, 6-fluoro-2-((1S,3R)-3-(2-(2-(2-hydroxyethoxy)phenyl)-6-(1H-1,2,4-triazol-3-yl)-1H-imidazo[4,5-c]pyridin-1-yl)cyclohexyl)isoindolin-1-one]
< 100 nM	100 to 500 nM	–	O=C1c2ccc(F)cc2CN1[C@H]1CCC[C@@H](n2c(-c3ccccc3F)nc3cnc(-c4nc[nH]n4)cc32)C1 [Example 176, 5-fluoro-2-((1S,3R)-3-(2-(2-fluorophenyl)-6-(1H-1,2,4-triazol-3-yl)-1H-imidazo[4,5-c]pyridin-1-yl)cyclohexyl)isoindolin-1-one]
< 100 nM	< 100 nM	–	O=C1c2c(ccc(F)c2F)CN1[C@H]1CCC[C@@H](n2c(-c3ccccc3F)nc3cnc(-c4nc[nH]n4)cc32)C1 [Example 178, 6,7-difluoro-2-((1S,3R)-3-(2-(2-fluorophenyl)-6-(1H-1,2,4-triazol-3-yl)-1H-imidazo[4,5-c]pyridin-1-yl)cyclohexyl)isoindolin-1-one]
< 100 nM	< 100 nM	–	O=C1c2cc(F)ccc2CN1[C@H]1CCC[C@@H](n2c(-c3c(O)cccc3F)nc3cnc(-c4nc[nH]n4)cc32)C1 [Example 179, 6-fluoro-2-((1S,3R)-3-(2-(2-fluoro-6-hydroxyphenyl)-6-(1H-1,2,4-triazol-3-yl)-1H-imidazo[4,5-c]pyridin-1-yl)cyclohexyl)isoindolin-1-one]
